Data as given in paper PMC9986876, “Prediction of Antileishmanial Compounds: General Model, Preparation, and Evaluation of 2-Acylpyrrole Derivatives” (Journal of Chemical Information and Modeling, 2022).

Tests used:
[1] = test system: L. donovani (MHOM/IN/80/DD8) promastigotes; experiment: In vitro promastigote susceptibility assay (resazurin); assay type: cell-based; settings: for IC50: Leishmania donovani, L. donovani promastigotes, 48 h at 26 °C, triplicate, N/A = not active at 100 μg/mL; for SI (selectivity index, SI = CC50/IC50): CC50 J774 / IC50 L. donovani promastigotes
Experimental: (§1) The following species of Leishmania were used: L. donovani (MHOM/IN/80/DD8) was purchased (ATCC, USA) and L. amazonensis (MHOM/Br/79/Maria) was kindly provided by Prof. Alfredo Toraño (Instituto de Salud Carlos III, Madrid). Promastigotes were cultured in Schneider’s insect medium supplemented with 10% heat-inactivated fetal bovine serum (FBS) and 1000 U/L of penicillin plus 100 mg/L of streptomycin in 25 mL culture flasks at 26 °C. […] New samples of the compounds have been prepared according to the protocol described above, and subsequently solutions of the chemical compound to be assayed have been dissolved in DMSO at 50 mg/mL. […] Growth control and signal-to-noise control were also included. The final solvent (DMSO) concentrations never exceeded 0.5% (v/v) warranting no effect on parasite proliferation or morphology. After 48 h at 26 °C, 20 μL of a 2.5 mM resazurin solution was added to each well and the plates were returned to the incubator for another 3 h. […] Growth inhibition (%) was calculated by 100 – [(RFU treated wells – RFU signal-to-noise)/(RFU untreated – RFU signal-to-noise) × 100]. All tests were carried out in triplicate. Miltefosine (Sigma-Merck, Madrid, Spain) was used as the reference drug and was evaluated under the same conditions. […] The selectivity index (SI) was calculated as the ratio between cytotoxicity (CC50) and activity against parasites (IC50).

[2] = test system: L. amazonensis (MHOM/Br/79/Maria) promastigotes; experiment: as above; assay type: cell-based; settings: for IC50: Leishmania amazonensis; for IC50 / IC50 ± SD: L. amazonensis promastigotes, 48 h at 26 °C, triplicate, N/A = not active at 100 μg/mL; for SI (selectivity index, SI = CC50/IC50): CC50 J774 / IC50 L. amazonensis promastigotes
Experimental: as §1

[3] = Cytotoxicity assay on macrophages (resazurin); assay type: cell-based, BALB/c mice; settings: mouse, J774 macrophages, values marked e correspond to 100 μg/mL, the higher dose tested
Experimental: The assay was carried out as previously described.[30] J774 macrophages cell lines were seeded (5 × 10^4 cells/well) in 96-well flat-bottom microplates with 100 μL of RPMI 1640 medium. The cells were allowed to attach for 24 h at 37 °C and 5% CO2, and the medium was replaced by different concentrations of the compounds in 200 μL of medium and exposed for another 24 h. Growth controls and signal-to-noise were also included. Afterward, a volume of 20 μL of 2.5 mM resazurin solution was added, and plates were returned to the incubator for another 3 h to evaluate cell viability. The reduction of resazurin was determined by fluorometry as in the promastigote assay. Each concentration was assayed three times.

[4] = test system: L. major promastigotes; settings: in vitro; cited from earlier work
[5] = test system: L. amazonensis amastigotes; experiment: In vitro intracellular amastigote susceptibility assay in J774 macrophages; assay type: cell-based; settings: Leishmania amazonensis; L. amazonensis intracellular amastigotes in J774, 48 h; N/A = not active at 100 μg/mL
Experimental: The following species of Leishmania were used: L. donovani (MHOM/IN/80/DD8) was purchased (ATCC, USA) and L. amazonensis (MHOM/Br/79/Maria) was kindly provided by Prof. Alfredo Toraño (Instituto de Salud Carlos III, Madrid). Promastigotes were cultured in Schneider’s insect medium supplemented with 10% heat-inactivated fetal bovine serum (FBS) and 1000 U/L of penicillin plus 100 mg/L of streptomycin in 25 mL culture flasks at 26 °C. The assay was carried out as previously described.[29] Briefly, 5 × 10^4 J774 macrophages and stationary promastigotes in a 1:5 ratio were seeded in each well of a microtiter plate, suspended in 200 μL of culture medium, and incubated for 24 h at 33 °C in a 5% CO2 chamber. After this first incubation, the temperature was increased up to 37 °C for another 24 h. Thereafter, cells were washed several times in culture medium by centrifugation at 1.500g for 5 min in order to remove free non-internalized promastigotes. Finally, the supernatant was replaced by 200 μL/well of culture medium containing 2-fold serial dilutions of the test compounds as in promastigotes assay. Growth control and signal-to-noise were also included. Following incubation for 48 h at 37 °C and 5% CO2, the culture medium was replaced by 200 μL/well of the lysis solution (RPMI-1640 with 0.048% HEPES and 0.01% SDS) and incubated at room temperature for 20 min. Thereafter, the plates were centrifuged at 3.500g for 5 min and the lysis solution was replaced by 200 μL/well of Schneider’s insect medium. The culture plates were then incubated at 26 °C for another 4 days to allow transformation of viable amastigotes into promastigotes and proliferation. Afterward, 20 μL/well of 2.5 mM resazurin was added and incubated for another 3 h. Finally, fluorescence emission was measured and IC50 was estimated as described above. All tests were carried out in triplicate. Miltefosine (Sigma-Merck, Madrid, Spain) was used as the reference drug and was evaluated under the same conditions. The IC50 and SI were calculated as in the previous section.

[6] = macrophages J774, 24 h exposure, Table 2

IC50 [1] | IC50 [2] | IC50 [5] [µM] | IC50 ± SD [2] | SMILES | CC50 at 24 h [3, 6] [µM] | SI (selectivity index, SI = CC50/IC50) [1] | IC50 [4] [µM] | CC50 at 24 h ([3]; macrophages J774, Table 3 (amastigote assay table)) [µM] | SI (selectivity index, SI = CC50/IC50) [2]
> 100 µg/mL | > 100 µg/mL |  |  | N#Cc1ccc(C(=O)c2cccn2-c2ncccn2)cc1 [5ag] | > 365 |  |  |  | 
7.78 ± 0.27 µM | 16.9 ± 0.73 µM |  |  | Cc1cccnc1-n1cccc1C(=O)c1ccc(F)cc1 [5bd] | 137 ± 36.4 | >23.15 |  |  | 
 |  |  |  | Cc1ccc2ncc(/C=C/C(=O)c3cc[nH]c3)cc2c1 [4a] |  |  | 1.29 |  | 
> 100 µg/mL | > 100 µg/mL |  |  | Cc1ccc(C(=O)c2cccn2-c2ncccn2)cc1 [5ab] | > 381 |  |  |  | 
0.24 ± 0.02 µM | 30.7 ± 8.8 µM | 47.6 ± 7.04 |  | CCCCCCCCCCCCCCCCOP(=O)([O-])OCC[N+](C)(C)C [miltefosine, reference compound] | 55.4 ± 4.19 |  |  | 136 ± 10.2 | 
> 100 µg/mL | > 100 µg/mL |  | inactive | COc1cc(C(=O)c2cccn2-c2ncccc2C)cc(OC)c1OC [5bk] | 284 |  |  |  | 
315 ± 60.8 µM | 192 ± 12 µM |  |  | Cc1cccnc1-n1cccc1C(=O)c1ccc(C#N)cc1 [5bg] | > 348 | >1.10 |  |  | >1.81
> 100 µg/mL | > 100 µg/mL |  |  | Cc1cccnc1-n1cccc1C(=O)c1ccoc1 [5bs] | > 396 |  |  |  | 
 |  |  |  | COc1ccc2ncc(/C=C/C(=O)c3cc[nH]c3)cc2c1 [4b] |  |  | 1.18 |  | 
> 100 µg/mL | > 100 µg/mL |  | inactive | O=C(c1ccc(F)cc1)c1cccn1-c1ncccn1 [5ad] | 270 ± 26.3 |  |  |  | 
184 ± 8.67 µM | 208 ± 23.6 µM |  |  | Cc1cccnc1-n1cccc1C(=O)c1cccc(OCc2ccccc2)c1 [5bp] | > 357 | >1.47 |  |  | >1.31
> 100 µg/mL | 153 ± 21.6 µM |  |  | Cc1cccnc1-n1cccc1C(=O)c1ccccc1 [5ba] | > 381 |  |  |  | >2.50
 |  |  |  | CN1CCC(c2cc(-c3ccc(F)cc3)c(-c3ccncc3)[nH]2)CC1 [compound 2] |  |  | 0.6 |  | 
58.5 ± 7.04 µM | 32.9 ± 0.74 µM |  |  | CC(C)(C)c1ccc(C(=O)c2cccn2-c2ncccn2)cc1 [5ac] | 91 ± 6.55 | >1.55 |  |  | >2.77
 |  |  |  | CN1CCC(c2cc(-c3ccncc3)c(-c3ccc(F)cc3)[nH]2)CC1 [compound 1] |  |  | 2.1 |  | 
42.8 ± 0.61 µM | 48 ± 1.61 µM |  |  | O=C(c1ccc(C(F)(F)F)cc1)c1cccn1-c1ncccn1 [5ai] | 150 ± 49.4 | >3.51 |  |  | >3.13

IC50 [1] | IC50 [2] | IC50 [5] [µM] | IC50 ± SD [2] | SMILES | CC50 at 24 h [3, 6] [µM] | SI (selectivity index, SI = CC50/IC50) [1] | IC50 [4] [µM] | CC50 at 24 h ([3]; macrophages J774, Table 3 (amastigote assay table)) [µM] | SI (selectivity index, SI = CC50/IC50) [2]
> 100 µg/mL | > 100 µg/mL |  |  | COc1ccc(C(=O)c2cccn2-c2ncccn2)c(OC)c1 [5al] | 224 ± 46.9 |  |  |  | 
211 ± 32.8 µM | 32.5 ± 0.64 µM |  |  | COc1cc(OC)cc(C(=O)c2cccn2-c2ncccn2)c1 [5aj] | 88.3 ± 3.36 | >0.42 |  |  | >2.71
92.8 ± 7.68 µM | 209 ± 4.69 µM |  |  | Cc1cccnc1-n1cccc1C(=O)c1ccn(C(C)(C)C)c1 [5bq] | > 325 |  |  |  | >1.56
19.9 ± 1.47 µM | 38.1 ± 0.85 µM |  |  | Cc1cccnc1-n1cccc1C(=O)c1ccc(Br)cc1 [5bf] | 120 ± 37.4 | >6.01 |  |  | >3.14
> 100 µg/mL | 260 ± 40.7 µM |  |  | O=C(c1ccccc1)c1cccn1-c1ncccn1 [5aa] | > 401 |  |  |  | >1.55
120 ± 15 µM | 149 ± 3.84 µM |  |  | Cc1ccc(C(=O)c2cccn2-c2ncccc2C)cc1 [5bb] | > 362 | >3.02 |  |  | >2.43
> 100 µg/mL | > 100 µg/mL |  |  | O=C(c1ccc([N+](=O)[O-])cc1)c1cccn1-c1ncccn1 [5ah] | > 340 |  |  |  | 
> 100 µg/mL | 227 ± 13.4 µM |  |  | Cc1cccnc1-n1cccc1C(=O)c1ccn(C)c1 [5br] | > 377 |  |  |  | >1.66
20.7 ± 0.98 µM | 51.5 ± 4.72 µM |  |  | Cc1cccnc1-n1cccc1C(=O)c1ccc(Cl)cc1 [5be] | 149 ± 19.3 | >7.19 |  |  | >2.89
43.5 ± 0.59 µM | 71.1 ± 7.81 µM |  |  | COc1cc(OC)cc(C(=O)c2cccn2-c2ncccc2C)c1 [5bj] | 108 ± 5.76 |  |  |  | >1.53
199 ± 25.4 µM | 57.34 ± 0.25 µM |  |  | O=C(c1cc(C(F)(F)F)cc(C(F)(F)F)c1)c1cccn1-c1ncccn1 [5am] | > 260 | >1.31 |  |  | >4.53
> 100 µg/mL | > 100 µg/mL |  | inactive | COc1cc(C(=O)c2cccn2-c2ncccn2)cc(OC)c1OC [5ak] | 87.3 ± 7.37 |  |  |  | 
173 ± 60.3 µM | 224 ± 14.7 µM |  |  | COc1ccc(C(=O)c2cccn2-c2ncccc2C)cc1 [5bo] | > 342 | >1.98 |  |  | >1.53
190 ± 6.76 µM | 117 ± 10.9 µM |  |  | O=C(c1ccc(Cl)cc1)c1cccn1-c1ncccn1 [5ae] | > 352 | >1.86 |  |  | >3.01
58.5 ± 3.34 µM | 36.1 ± 1.23 µM |  |  | O=C(c1ccc2ccccc2c1)c1cccn1-c1ncccn1 [5an] | 113 ± 39.2 | >1.93 |  |  | >3.12
